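Dose response: 5 concentrations. Exposure: 48 h. Format: 96-well plates. Endpoint: linear interpolation; highest concentration if not reached. GI50 is the concentration that inhibits growth by half.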 Calls of active or inactive are those of the source. Cut-off read from the data, not from the text of the source: active = GI50 up to about 1.1 µM and inactive = higher. Where a SMILES comes first, the peptide text is derived from it. [ ]: non-standard residue; d: D form. The star is where a group is joined. ξ: configuration not given here. ξD = NC(CC(=O)O)C(=O)O; Boc = CC(C)(C)OC(=O)*; Aib = CC(C)(N)C(=O)O; OBn = c1ccc(CO*)cc1
What was measured:
Test in all cases: NCI anticancer screen, dose series, 48 h
[1] = system: HCT-15
[2] = system: EKVX
[3] = system: CAKI-1
[4] = system: TK-10
[5] = system: BT-549
[6] = system: HT-29
[7] = system: OVCAR-4
[8] = system: NCI-H226
[9] = system: MDA-MB-231
[10] = system: A549
[11] = system: HL-60
[12] = system: SN12C
[13] = system: UACC-62
[14] = system: SK-MEL-5
[15] = system: SK-MEL-28
[16] = system: IGROV-1
[17] = system: NCI-H460
[18] = system: OVCAR-8
[19] = system: RXF 393
[20] = system: SR

| Compound | GI50 [1] [µM] | GI50 [2] | GI50 [3] | GI50 [4] | GI50 [5] | GI50 [6] | GI50 [7] | GI50 [8] | GI50 [9] | GI50 [10] | GI50 [11] | GI50 [12] | GI50 [13] | GI50 [14] | GI50 [15] | GI50 [16] | GI50 [17] | GI50 [18] | GI50 [19] | GI50 [20] |
| --- | --- | --- | --- | --- | --- | --- | --- | --- | --- | --- | --- | --- | --- | --- | --- | --- | --- | --- | --- | --- |
| COc1ccc(NC(=O)/C(=N\NC(=O)C[n+]2ccccc2)c2c(O)c3ccc(O)cc3oc2=O)c([N+](=O)[O-])c1 | > 100 | > 100 µM (inactive) | > 100 µM (inactive) | > 100 µM (inactive) | > 100 µM (inactive) | > 100 µM (inactive) | > 100 µM (inactive) | > 100 µM (inactive) | > 100 µM (inactive) | > 100 µM (inactive) | > 100 µM (inactive) | > 100 µM (inactive) | > 100 µM (inactive) | > 100 µM (inactive) | > 100 µM (inactive) | > 100 µM (inactive) | > 100 µM (inactive) | > 100 µM (inactive) | – | – |
| CCOC(=O)CCC(NC(=O)C(CCC(=O)OCC)NC(=O)C(Cc1ccc([N+](=O)[O-])cc1)NC(C)=O)C(=O)NNC(=O)OC(C)(C)C (centres undefined) | > 100 | > 100 µM (inactive) | – | > 100 µM (inactive) | > 100 µM (inactive) | > 100 µM (inactive) | – | > 100 µM (inactive) | > 100 µM (inactive) | > 100 µM (inactive) | > 100 µM (inactive) | > 100 µM (inactive) | > 100 µM (inactive) | > 100 µM (inactive) | > 100 µM (inactive) | > 100 µM (inactive) | > 100 µM (inactive) | > 100 µM (inactive) | 14 µM (inactive) | – |
| CC(C)C(NCc1c(O)ccc2c(-c3ccccc3)cc(=O)oc12)C(=O)O (centres undefined) | > 100 | > 100 µM (inactive) | > 100 µM (inactive) | > 100 µM (inactive) | – | > 100 µM (inactive) | > 100 µM (inactive) | > 100 µM (inactive) | > 100 µM (inactive) | > 100 µM (inactive) | > 100 µM (inactive) | > 100 µM (inactive) | > 100 µM (inactive) | > 100 µM (inactive) | > 100 µM (inactive) | > 100 µM (inactive) | > 100 µM (inactive) | > 100 µM (inactive) | > 100 µM (inactive) | > 100 µM (inactive) |
| O=[N+]([O-])c1ccc(/C=N/n2c(S)nnc2CCc2nnc(S)n2/N=C/c2ccc([N+](=O)[O-])o2)o1 | 15.9 | > 100 µM (inactive) | 20.2 µM (inactive) | 84.1 µM (inactive) | – | 29.3 µM (inactive) | 19.3 µM (inactive) | > 100 µM (inactive) | 24.7 µM (inactive) | – | 33.6 µM (inactive) | – | – | 17.3 µM (inactive) | 16.6 µM (inactive) | 44.3 µM (inactive) | 84.5 µM (inactive) | 31.9 µM (inactive) | 16.7 µM (inactive) | 28.3 µM (inactive) |
| CC(C)(C)OC(=O)NC(CC(=O)OCc1ccccc1)C(=O)NC(C)(C)C(N)=O (centres undefined) (Boc-[ξD](OBn)-[Aib]-NH2) | > 100 | > 100 µM (inactive) | > 100 µM (inactive) | > 100 µM (inactive) | > 100 µM (inactive) | > 100 µM (inactive) | > 100 µM (inactive) | > 100 µM (inactive) | > 100 µM (inactive) | > 100 µM (inactive) | – | > 100 µM (inactive) | 0.0204 µM (active) | > 100 µM (inactive) | > 100 µM (inactive) | > 100 µM (inactive) | > 100 µM (inactive) | > 100 µM (inactive) | > 100 µM (inactive) | – |
| CCC12CCCN3CCc4c(n(c5ccccc45)C(O)(C(=O)OC)C1)C32 (centres undefined) | > 100 | > 100 µM (inactive) | > 100 µM (inactive) | > 100 µM (inactive) | > 100 µM (inactive) | > 100 µM (inactive) | > 100 µM (inactive) | > 100 µM (inactive) | > 100 µM (inactive) | > 100 µM (inactive) | > 100 µM (inactive) | > 100 µM (inactive) | > 100 µM (inactive) | > 100 µM (inactive) | > 100 µM (inactive) | > 100 µM (inactive) | > 100 µM (inactive) | > 100 µM (inactive) | – | – |
| O=C1Nc2ccccc2C(=O)/C1=C/NC(=S)NCc1ccccc1 | – | > 100 µM (inactive) | > 100 µM (inactive) | > 100 µM (inactive) | > 100 µM (inactive) | > 100 µM (inactive) | – | > 100 µM (inactive) | > 100 µM (inactive) | > 100 µM (inactive) | > 100 µM (inactive) | > 100 µM (inactive) | > 100 µM (inactive) | > 100 µM (inactive) | > 100 µM (inactive) | > 100 µM (inactive) | – | > 100 µM (inactive) | – | – |
| CCOC(=O)c1cnn2c1ncc1c(=O)n(NC(N)=O)ccc12 | > 100 | > 100 µM (inactive) | > 100 µM (inactive) | > 100 µM (inactive) | 94.8 µM (inactive) | > 100 µM (inactive) | > 100 µM (inactive) | > 100 µM (inactive) | > 100 µM (inactive) | > 100 µM (inactive) | > 100 µM (inactive) | > 100 µM (inactive) | > 100 µM (inactive) | > 100 µM (inactive) | > 100 µM (inactive) | > 100 µM (inactive) | > 100 µM (inactive) | > 100 µM (inactive) | – | – |
